In series [1] the test system is SK-OV-3 (ovarian adenocarcinoma) cells. Briefly: MTS cytotoxicity assay, SK-OV-3. It counts as cell-based. The note with it: SK-OV-3 cells. An excerpt: (§1) Human cell lines used included MG-63 (osteosarcoma), SK-OV-3 (ovarian adenocarcinoma), MDA-MB-231 (breast adenocarcinoma derived from a metastatic site), HCT 116 (colorectal carcinoma), HCT 116/200 (an FdUrd resistant subclone of HCT 116 cells), and A2780ADR (a doxorubicin resistant subclone of the ovarian carcinoma A2780). All cells were stored in liquid nitrogen until use. MG-63, SK-OV-3, MDA-MB-231, and HCT 116 cell lines were all obtained from ATCC. A2780ADR cells were obtained from Sigma-Aldrich. HCT 116/200 cells were obtained from Dr. Franklin G. Berger from the Center for Colon Cancer Research. MG-63 cells were maintained in MEM medium (Corning) supplemented with 10% Fetal Bovine Essence (VWR) and 1% penicillin/streptomycin solution (Corning). SK-OV-3 cells were maintained in McCoy's 5A Medium (Sigma) supplemented with Fetal Bovine Essence and 1% penicillin/streptomycin. […]
(§2) Cells were first grown to approximately 80% confluency within […] tissue culture flasks (VWR). […] Cells were counted using a hemocytometer and their viability was confirmed using trypan blue (Gibco). […]
(§3) In combination studies, 7-acetoxyroyleanone and FdUrd were first mixed into the same media and then added to the cells. […] The cells were incubated for 2 hours, and the absorbance of each well at 490 nm was measured using a Spectramax 190 microplate reader.
Background: Tetrazolium assays rely on reduction of a dye to a coloured formazan, in cell work by metabolically active cells.

The subject of series [2] is MG-63 (osteosarcoma) cells. Description: MTS cytotoxicity assay, MG-63. It counts as cell-based. The settings on record: MG-63 cells, 48 and 72 hours of exposure.
Excerpt: as §1, §2, §3

The subject of series [3] is SF-295 (CNS cancer) cells. Briefly: NCI-60 five dose screen, SF-295. The note with it: read-out: LC50; SF-295, CNS.
The subject of series [4] is HCT 116 (colorectal carcinoma) cells. Briefly: MTS cytotoxicity assay, HCT 116. It counts as cell-based. The note with it: HCT 116 cells.
Excerpt: as §1, §2, §3

The subject of series [5] is MDA-MB-468 (breast cancer) cells. Description: NCI-60 five dose screen, MDA-MB-468. The settings on record: read-out: LC50; MDA-MB-468, Breast.
Series [6] deals with A2780ADR (doxorubicin resistant subclone of ovarian carcinoma A2780) cells. Description: MTS cytotoxicity assay, A2780ADR. It counts as cell-based. The note with it: 48 and 72 hours of exposure.
Excerpt: as §1, §2, §3

Series [7] relates to COLO 205 (colon cancer) cells. Briefly: NCI-60 five dose screen, COLO 205. The settings on record: read-out: LC50; COLO 205, Colon.
Series [8] concerns HCT 116/200 (FdUrd resistant subclone of HCT 116) cells. Briefly: MTS cytotoxicity assay, HCT 116/200. It counts as cell-based. The note with it: HCT 116/200 cells.
Excerpt: as §1, §2, §3

Series [9] deals with RXF 393 (renal cancer) cells. Briefly: NCI-60 five dose screen, RXF 393. The note with it: read-out: LC50; RXF 393, Renal.
Series [10] concerns NCI-60 panel of cancer cell lines. The note with it: for GI50: across all 60 cell lines.
Series [11] deals with HCC-2996 (colon cancer) cells. Briefly: NCI-60 five dose screen, HCC-2996.
For series [12], the system named is NCI-H522 (non-small cell lung cancer) cells. Description: NCI-60 five dose screen, NCI-H522. The note with it: read-out: LC50; NCI-H522, Non-small Cell Lung Cancer.
For series [13], the system named is MDA-MB-435 (melanoma) cells. Briefly: NCI-60 five dose screen, MDA-MB-435. The settings on record: read-out: LC50; MDA-MB-435, Melanoma.
Series [14] relates to MDA-MB-231 (breast adenocarcinoma) cells. Briefly: MTS cytotoxicity assay, MDA-MB-231. It counts as cell-based. The note with it: MDA-MB-231 cells.
Excerpt: as §1, §2, §3

Where [15] appears, read: 48 and 72 hours of exposure, MTS.
Where [16] appears, read: HCC-2996, most sensitive cell line to growth inhibition.

Read-outs that look alike come from different tables or passages of the source.

Regarding `CC(=O)O[C@@H]1C[C@H]2C(C)(C)CCC[C@]2(C)C2=C1C(=O)C(C(C)C)=C(O)C2=O` [7-acetoxyroyleanone], the “cell death at the lowest concentration tested” value in [1] (1 μg/mL), in series [4] (1 μg/mL) and in series [14] (1 μg/mL) was “cell death was indicated” throughout. Besides, the “cytotoxicity (percent viability)” value in series [1] (setting [15]) is given as “significant cytotoxic properties”; in series [2] it was “significant cytotoxic properties”; in series [4] (setting [15]), “significant cytotoxic properties”; in series [6], “significant cytotoxic properties”; in series [8] (48 and 72 hours of exposure) it was “significant cytotoxic properties”; in [14] (setting [15]), “significant cytotoxic properties”. Besides, the CC50 in series [3] is 7.37 µM; in [5], 9.46 µM; in [7], 6.3 µM; in series [9], 5.87 µM; in series [10], 11.5 µM; in [11] (read-out: LC50, HCC-2996, Colon) it was 6.41 µM. Also, the CC50 in [12] turned out to be 9.02 µM; in series [13] it was 5.87 µM. In addition, the “cytotoxic effect in combination with FdUrd (percent viability, cell number)” value in [8] (48 hour exposure, combined with 1 μg/mL FdUrd) is given as “synergistic cytotoxic effect”. The “average TGI concentration” value in series [10] (across the 50 cell lines with TGI within the range tested) is 6.69 µM. For the same compound, the GI50 came to 1270 nM in series [10] (read-out: average GI50 concentration, five dose screen); 2860 nM in [10] (read-out: range of the GI50 concentrations); 405 nM in series [11] (setting [16]). The compound further returned a TGI in series [11] (setting [16]) of 1.62 µM.

Usually TGI stands for the concentration giving total growth inhibition. A high value points to less potent growth arrest.
